Measurements: article PMC11188305, “Reproductive and fetal toxicity studies of histamine H3 receptor antagonist DL76 used in mice to prevent maximal electroshock-induced seizure” (Frontiers in Pharmacology, 2024)
Like-named read-outs stand apart in the source and are kept apart here.

Assays:
[1] = set-up: method as in Szafarz et al., 2015; conditions: ref Szafarz et al., 2015, cited from earlier work
C57/B6 mouse embryos = experiment: Skeletal malformations (double staining of fetuses); format: in vivo, C57BL/6J mice
From the text: After isolating fetuses from viscera and skin, they underwent a fat-removal process by immersion in acetone for 1–3 days. The resulting transparent specimens underwent a sequence of glycerin solutions (50% and 80%) before being finally stored in 100% glycerin for observation of malformations using a stereo dissecting microscope ([McLeod, 1980]; [Sterz and Lehmann, 1985]; [Abdulrazzaq et al., 1997]; [Bass et al., 2020]). Following this, specimens were processed and stained with Alizarin Red-S and Alcian blue ([McLeod, 1980]; [Sterz and Lehmann, 1985]; [Abdulrazzaq et al., 1997]; [Bass et al., 2020]) to identify bone and cartilage deformities.
(§1) Statistical analyses employed SPSS 26.0 (IBM Middle East, Dubai, UAE). Data were presented as means ± SEM. […] Fetal abnormality data were presented as counts and percentages. Fisher’s exact test compared the percentages of abnormalities between the control group (saline) and the different dose groups. All tests were two-tailed, and significance was set at p < 0.05.

hN neuronal α4β2 = molecular target: T1, hN neuronal α4β2 (Homo sapiens, UniProt P17787+P43681); experiment: hN neuronal α4β2 binding, [3H]cystine in SH-SY5Y cells (Eurofins Cerep)
T1 construct: host or cells: SH-SY5Y cells

H3R = test system: H3R; set-up: method as in Lazewska et al. (2006); conditions: after p.o. administration to mice; ref Lazewska et al. (2006); cited from earlier work
[2] = set-up: method as in Canale et al., 2021; conditions: ref Canale et al., 2021; cited from earlier work
hH4R = molecular target: hH4R; set-up: method as in Lazewska et al. (2020) and Canale et al. (2021); conditions: Sf9 cells; [3H]histamine; ref Lazewska et al. (2020) and Canale et al. (2021); cited from earlier work
hH2R = molecular target: T2, hH2R (Homo sapiens, UniProt P25021); experiment: hH2R radioligand binding, [125I]APT in CHO cells (Eurofins Cerep)
T2 construct: host or cells: CHO cells

[3] = test system: MES-induced seizures in mice; experiment: Maximal electroshock (MES)-induced seizure, duration of tonic hind limb extension (THLE); format: in vivo, C57BL/6J mice; conditions: for protection compared with reference drug VPA: DL76 60 mg/kg i.p. vs VPA 300 mg/kg; for mean difference in THLE: DL76 60 mg/kg vs saline-, DL76 7.5, 15, 30 mg/kg groups, p < 0.05
From the text: As previously described and with a slight modification in the intensity applied, seizures were elicited in mice with a 50-Hz alternating current of 120 mA intensity ([Kaminski et al., 2015]; [Song et al., 2020]; [Xiao et al., 2021]; [Hua et al., 2023]). The current was applied through ear electrodes for 0.2 s. Protection against the spread of MES-induced convulsion was defined as the abolition of the tonic hind limb extension (THLE) component of the seizure ([Kaminski et al., 2015]; [Song et al., 2020]; [Xiao et al., 2021]; [Hua et al., 2023]). The animals were divided into the following experimental groups, with eight mice in each: the control group injected with saline, the positive control group injected with 300 mg/kg of VPA (the minimal dose of VPA that protected animals against the spread of MES-induced convulsions without mortality in mice) ([Sadek et al., 2015]; [Bastaki et al., 2018]), and four groups that were administered the test compound DL76 at doses of 7.5 mg/kg, 15 mg/kg, 30 mg/kg, or 60 mg/kg. All drugs were administered 30–45 min before the MES challenge. In a further group of eight mice, the most promising and protective dose of DL76 (60 mg/kg, i.p.) was co-injected with RAM (10 mg/kg, i.p.), 30 min apart and 15 min prior to the MES test. Protection against the spread of MES-induced convulsion was defined as the abolition of the THLE component of the convulsion ([Sadek et al., 2015]; [Alachkar et al., 2018]; [Bastaki et al., 2018]).
as §1

adrenergic α2 receptor = adrenergic α2 receptor binding, [3H]clonidine in rat cerebral cortex; conditions: protocol of Canale et al., 2021
hH3R = molecular target: hH3R; set-up: method as in Lazewska et al. (2006); conditions: CHO K1 cells; [125I]Iodoproxyfan binding assay; ref Lazewska et al. (2006); cited from earlier work
several cell lines = test system: several cell lines; set-up: method as in Canale et al., 2021; conditions: ref Canale et al., 2021; cited from earlier work

T1 sequence (P43681 29-627 limits assumed): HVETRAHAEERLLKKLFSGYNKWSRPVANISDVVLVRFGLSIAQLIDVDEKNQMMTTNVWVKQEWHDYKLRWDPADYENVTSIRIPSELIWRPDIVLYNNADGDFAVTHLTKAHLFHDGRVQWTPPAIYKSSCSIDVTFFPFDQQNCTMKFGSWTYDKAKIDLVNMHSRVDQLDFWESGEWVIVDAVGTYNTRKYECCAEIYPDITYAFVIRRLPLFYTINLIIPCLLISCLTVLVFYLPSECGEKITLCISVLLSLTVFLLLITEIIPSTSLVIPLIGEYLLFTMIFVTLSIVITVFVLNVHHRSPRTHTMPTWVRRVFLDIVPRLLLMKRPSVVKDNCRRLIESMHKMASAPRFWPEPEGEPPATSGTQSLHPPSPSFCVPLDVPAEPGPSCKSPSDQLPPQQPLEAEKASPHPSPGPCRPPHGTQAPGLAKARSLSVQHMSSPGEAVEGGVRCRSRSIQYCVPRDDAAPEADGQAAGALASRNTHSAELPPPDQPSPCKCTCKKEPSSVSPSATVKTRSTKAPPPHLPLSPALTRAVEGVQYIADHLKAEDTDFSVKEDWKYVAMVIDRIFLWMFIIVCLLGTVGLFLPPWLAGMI
T1 sequence (P17787 26-502): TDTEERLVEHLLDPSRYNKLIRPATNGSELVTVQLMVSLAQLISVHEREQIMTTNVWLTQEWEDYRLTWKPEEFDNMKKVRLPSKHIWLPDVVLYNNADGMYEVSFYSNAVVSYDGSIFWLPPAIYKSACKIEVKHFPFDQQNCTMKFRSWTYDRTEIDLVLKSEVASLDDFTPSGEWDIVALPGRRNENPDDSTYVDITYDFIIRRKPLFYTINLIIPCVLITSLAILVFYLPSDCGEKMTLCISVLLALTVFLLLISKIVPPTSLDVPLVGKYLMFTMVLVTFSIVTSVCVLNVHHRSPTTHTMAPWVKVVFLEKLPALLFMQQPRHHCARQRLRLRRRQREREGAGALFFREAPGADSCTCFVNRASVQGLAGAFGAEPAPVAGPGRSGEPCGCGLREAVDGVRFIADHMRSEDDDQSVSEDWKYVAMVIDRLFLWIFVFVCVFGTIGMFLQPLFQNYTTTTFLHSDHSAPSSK
T2 sequence (P25021 whole entry): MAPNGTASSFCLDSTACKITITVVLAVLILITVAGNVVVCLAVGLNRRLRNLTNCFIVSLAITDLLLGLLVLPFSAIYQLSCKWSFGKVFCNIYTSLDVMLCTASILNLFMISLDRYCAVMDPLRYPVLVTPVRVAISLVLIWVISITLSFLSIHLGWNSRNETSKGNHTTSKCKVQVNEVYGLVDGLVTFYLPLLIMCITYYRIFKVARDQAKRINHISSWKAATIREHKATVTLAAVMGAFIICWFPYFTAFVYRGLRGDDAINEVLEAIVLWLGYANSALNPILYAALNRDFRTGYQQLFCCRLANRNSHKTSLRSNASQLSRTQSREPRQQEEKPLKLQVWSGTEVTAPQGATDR

CC(C)(C)c1ccc(OCCCN2CCCCC2)cc1 [DL76, 1-(3-(4-tert-butyl-phenoxy)propyl) piperidine]
AUC0→∞ ([1]; dose 3 mg/kg): 298 ng◦h/mL | C0 ([1]; dose 3 mg/kg): 564 ng/mL | AUC0→∞ ([1]; dose 6 mg/kg): 685 ng◦h/mL | C0 ([1]; dose 6 mg/kg): 653 ng/mL | concentrations in cortex, hippocampus and striatum higher than in whole brain tissues ([1]; experimental animals): 44% | femur length (C57/B6 mouse embryos; 7.5 mg/kg and 60 mg/kg groups): significantly decreased | tibia and fibula lengths vs controls (C57/B6 mouse embryos; 7.5 mg/kg, 30 mg/kg and 60 mg/kg groups): significantly decreased | mean crown-to-rump length vs control groups (C57/B6 mouse embryos; 7.5 mg/kg-, 30 mg/kg- and 60 mg/kg-treated groups): decreased significantly | humerus and ulna lengths (C57/B6 mouse embryos; 30 mg/kg and 60 mg/kg groups): reduced | radius length (C57/B6 mouse embryos; 30 mg/kg group only): significant decrease | femur length (C57/B6 mouse embryos; 30 mg/kg group, p = 0.06): non-significant decrease | incidence of lumbar ribs vs saline-treated control (C57/B6 mouse embryos; DL76-treated group): not significantly different | fifth sternebrium, absence or occurrence of hypoplasia, vs control (C57/B6 mouse embryos; DL76-treated groups): no significant difference | skull or facial bones (C57/B6 mouse embryos; all groups): No significant differences | vertebrae: number of centra or number of unossified/hypoplastic bodies (C57/B6 mouse embryos; all the DL-76-treated groups): no differences | crown–rump length and lengths of the long bones of the extremities (C57/B6 mouse embryos; higher doses of 30 mg/kg, 60 mg/kg and 15 mg/kg × 3): seemed to be affected | inhibition at 1 µM (hN neuronal α4β2): 3% | ED50, in vivo H3R antagonist potency (H3R): 2.8 ± 0.4 mg/kg | antiparkinsonian effects [2]: antiparkinsonian effects | Ki (hH4R): 66 µM | inhibition at 1 µM (hH2R): 2.8% | difference of protective effects between male and female mice ([3]; DL76 7.5, 15, 30 and 60 mg/kg i.p., p = 0.70, 0.685, 0.151, 0.398): no significant differences | THLE compared with reference drug VPA (300 mg/kg, i.p.) ([3]; both sexes of adult mice, DL76 30 mg/kg and 60 mg/kg): no significant differences | THLE values compared with VPA ([3]; both sexes of adult mice, lower doses of DL76 7.5 mg/kg and 15 mg/kg i.p.): significant difference | mean difference, saline + saline vs. DL76 + RAM ([3]; female adult mice, DL76 60 mg/kg + RAM 10 mg/kg i.p., p = 0.17): 1.33 | protection after co-administration of RAM ([3]; female adult mice, DL76 60 mg/kg i.p. + RAM 10 mg/kg i.p. 15 min before MES): abrogated | protection compared with reference drug VPA ([3]; female adult mice, p = 0.72): comparable | mean difference in THLE ([3]; female adult mice, 2nd of three printed values): 10.63 s | mean difference in THLE ([3]; female adult mice, 3rd of three printed values): 3.13 s | protection against MES-induced convulsions ([3]; female adult mice, DL76 7.5–60 mg/kg i.p.): significantly protected | protection against MES-induced seizures ([3]; female and male mice, 7.5, 15, 30 and 60 mg/kg i.p., acute): significant and dose-dependent protection | mean difference of THLE, saline vs. DL76+RAM ([3]; male adult mice, DL76 60 mg/kg + RAM 10 mg/kg i.p., p = 0.094): 2.5 s | protection after co-injection with H3R agonist RAM ([3]; male adult mice, DL76 60 mg/kg i.p. + RAM 10 mg/kg i.p. 15 min before MES): reversed | mean difference of THLE ([3]; male adult mice, DL76 60 mg/kg i.p. vs DL76 (7.5 mg/kg)-treated group): 7.25 s | mean difference of THLE ([3]; male adult mice, DL76 60 mg/kg i.p. vs DL76 (15 mg/kg)-treated group): 8.88 s | mean difference of THLE ([3]; male adult mice, DL76 60 mg/kg i.p. vs DL76 (30 mg/kg)-treated group): 10.75 s | protection compared with reference drug VPA ([3]; male adult mice, p = 1.000): comparable | protective effect on MES-induced convulsions vs saline ([3]; male adult mice, all doses 7.5, 15, 30, 60 mg/kg i.p., all p <0.0001): substantial protective effects | Ki (adrenergic α2 receptor): > 5 µM | Ki (hH3R): 0.022 µM | in vitro toxicity (several cell lines): without inducing in vitro toxicity
